Experimental data: patent US10927104B2, “Ether compounds and uses thereof” (BioTheryX, Inc., priority 2017, dated 2021)

Columns and labels:
Assay type in all cases: cell-based
IL-6 = test: PBMC assay, LPS-induced IL-6 (Meso Scale); conditions: Homo sapiens, PBMCs, 100 ng/mL LPS 18-24 hrs; for inhibition at 0.1 µM: compound at 0.1 μM; for inhibition at 1 µM: compound at 1 μM; for inhibition at 10 µM: compound at 10 μM
Procedure: (§1) FIG. 2 represents the activity against IL-6 in peripheral blood mononuclear cells (PBMCs), plated in 96 well plates and pretreated with compound for 1 hour and then induced with 100 ng/mL LPS for 18-24 hrs. Cytokines were measured according to MesoScale protocol. Negative control wells were treated with DMSO. Compound activity was measured as a percentage of LPS-induced activity.
(§2) Frozen primary blood mononuclear cells (PBMCs) were purchased from AllCells. Cells were quick thawed, washed once with RPMI-1640/10% FBS.
(§3) 1% Penicillin/1% Streptomycin and plated in 96 well plates at 200,000 cells per well. Cells were pretreated with DMSO only, or Compound 1 for 1 hour and then induced with 100 ng/mL lipopolysaccharide (LPS) for 18-24 hrs. The supernatant was analyzed for IL-1 beta, IL-6, and TNFα, using Meso Scale assay according to manufacturer's protocol. The negative control wells were treated with DMSO.
(§4) Compound activity was measured as fold difference from the DMSO control. IL-1β activity is shown in FIG. 1; IL-6 activity is shown in FIG. 2; TNFα activity is shown in FIG. 3; and IL-2 activity is shown in FIG. 4. Additional data for compounds (shown as percent inhibition) at 10 μM is shown in Table 1; at 1 μM in Table 2; and at 0.1 μM in Table 3.

Molm-13 cells = test: Cell viability assay (CellTiter-Glo), Molm-13 proliferation; conditions: Homo sapiens, MOLM-13, 72 h, 3 days; for inhibition at 1 µM: compound at 1 μM; for inhibition at 10 µM: compound at 10 μM; for inhibition at 0.1 µM: compound at 0.1 μM
Procedure: (§5) Molm-13 and MV-4-11 cells were cultivated in RPMI-1640 (10% FBS/1% pen-strep) and were plated in white walled 96-well plates at 20,000 cells/well.
(§6) Cells were treated with compound at the indicated concentration or DMSO (control) and the cultures were incubated for 3 days at 37° C. and 5% CO2. Following the incubation period, 100 μL of CellTiterGlow (CTG) reagent (CellTiter-Glo® Luminescent Cell Viability Assay, Promega (Madison, Wis.)) was added to each well. Following a 10 min incubation with shaking, luminescence was measured using a Victor Wallac Luminometer.

MV-4-11 cells = test: Cell viability assay (CellTiter-Glo), MV-4-11 proliferation; conditions: Homo sapiens, MV4-11, 72 h, 3 days; for inhibition at 1 µM: compound at 1 μM; for inhibition at 10 µM: compound at 10 μM
Procedure: as §5, §6

IL-2 = test: Anti-CD3-induced IL-2 secretion in PBMCs (Mesoscale); conditions: Homo sapiens, PBMC, anti-CD3 stimulated PBMCs, 24 hr, vs DMSO control, read-out: IL-2 Fold Change; for fold induction at 0.1 µM: compound at 0.1 μM; for fold induction at 1 µM: compound at 1 μM
Procedure: FIG. 4 represents Anti-CD3-induced IL-2 secretion in PBMCs. 1 μg/mL anti-CD3 (OKT-3) antibody in PBS coated onto 96-well plates overnight at 4° C. Approximately, 550,000 PBMCs were added to each well, followed by addition of DMSO only (control) or Compound 1. Induction was measured after 24 hrs as fold difference from the DMSO stimulated control.
as §2
For the IL-2 analysis, 96 well plates were precoated with 1 μg/mL anti-human CD3 antibody (OKT3, eBioscience Inc.). After washing with PBS, Compound 1 was added (50 μL/well) followed by PBMCs diluted at 3-4 million cells/mL (150 μL/well). Plates were incubated for 24 hr and the supernatants collected for Mesoscale IL-2 analysis.
as §4

TNFα = test: PBMC assay, LPS-induced TNFα (Meso Scale); conditions: Homo sapiens, PBMCs, 100 ng/mL LPS 18-24 hrs; for inhibition at 0.1 µM: compound at 0.1 μM; for inhibition at 1 µM: compound at 1 μM; for inhibition at 10 µM: compound at 10 μM
Procedure: as §1, with “FIG. 3” for “FIG. 2”, “against TNFα” for “against IL-6”, “Cytokines in the media” for “Cytokines”, “protocol. The negative” for “protocol. Negative”, “activity is” for “activity was”
as §2, §3, §4

IL-1β = test: PBMC assay, LPS-induced IL-1β (Meso Scale); conditions: Homo sapiens, PBMCs, 100 ng/mL LPS 18-24 hrs; for inhibition at 0.1 µM: compound at 0.1 μM; for inhibition at 1 µM: compound at 1 μM; for inhibition at 10 µM: compound at 10 μM
Procedure: as §1, with “FIG. 1” for “FIG. 2”, “against IL-1-beta” for “against IL-6”, “Cytokines in the media” for “Cytokines”, “activity is” for “activity was”
as §2, §3, §4

| SMILES | inhibition at 0.1 µM (IL-6) [%] | inhibition at 1 µM (IL-6) [%] | inhibition at 1 µM (Molm-13 cells) [%] | inhibition at 10 µM (Molm-13 cells) [%] | inhibition at 1 µM (MV-4-11 cells) [%] | inhibition at 10 µM (MV-4-11 cells) [%] | fold induction at 0.1 µM (IL-2) | fold induction at 1 µM (IL-2) | inhibition at 0.1 µM (TNFα) [%] | inhibition at 1 µM (TNFα) [%] | inhibition at 0.1 µM (IL-1β) [%] | inhibition at 1 µM (IL-1β) [%] | inhibition at 0.1 µM (Molm-13 cells) [%] | inhibition at 10 µM (IL-6) [%] | inhibition at 10 µM (TNFα) [%] | inhibition at 10 µM (IL-1β) [%] | fold induction at 10 µM (IL-2; compound 10 μM) |
| --- | --- | --- | --- | --- | --- | --- | --- | --- | --- | --- | --- | --- | --- | --- | --- | --- | --- |
| O=C1CCC[C@H](N2Cc3c(OCc4ccc(CN5CCOc6ccccc65)cc4)cccc3C2=O)C(=O)N1 [Compound 2, (S)-3-(4-((4-((2,3-dihydro-4H-benzo[b][1,4]oxazin-4-yl)methyl)benzyl)oxy)-1-oxoisoindolin-2-yl)azepane-2,7-dione] | 43 | 67 | 5 | 30 | 6 | 16 | 1.3 | 2.3 | 81 | 90 | 72 | 86 | – | – | – | – | – |
| NCc1cccc(COc2cccc3c2CN([C@H]2CCCC(=O)NC2=O)C3=O)c1 [Compound 9, trifluoroacetic acid] | 51 | – | – | 34 | 2 | 10 | 1.6 | 1.6 | 62 | – | 74 | – | – | – | – | – | – |
| NCc1ccc(COc2cccc3c2CN([C@H]2CCCC(=O)NC2=O)C3=O)cc1 [Compound 5, trifluoroacetic acid] | 37 | – | – | 40 | 1 | 3 | 1.2 | 2.1 | 55 | – | 64 | – | – | – | – | – | – |
| Cc1cnc(Nc2ccc(OCCCNC(=O)NCc3ccc(COc4cccc5c4CN([C@H]4CCC(=O)NC4=O)C5=O)cc3)cc2)nc1Nc1cccc(S(=O)(=O)NC(C)(C)C)c1 [Compound 20] | 1 | 5 | 99 | – | 77 | 88 | 0.9 | 1.4 | 43 | 57 | 30 | 43 | 93 | – | – | – | – |
| O=C1CCC[C@H](N2Cc3c(OCCc4ccc(CN5CCOCC5)cc4)cccc3C2=O)C(=O)N1 [Compound 26, (S)-3-(4-{2-[p-(Morpholinomethyl)phenyl]ethoxy}-2-isoindolinoyl)-2,7-azepanedione] | 5 | 8 | 66 | – | 2 | 23 | 2.6 | 2.7 | 82 | 87 | 78 | 81 | 21 | – | – | – | – |
| Cc1cnc(Nc2ccc(OCCCNCC(=O)NCc3ccc(COc4cccc5c4CN([C@H]4CCCC(=O)NC4=O)C5=O)cc3)cc2)nc1Nc1cccc(S(=O)(=O)NC(C)(C)C)c1 [Compound 6] | 42 | 76 | – | 91 | 0 | 76 | 1 | 2.5 | 62 | 83 | 68 | 92 | – | – | – | – | – |
| O=C1CCC[C@H](N2Cc3c(OCc4cccc(CN5CCOCC5)c4)cccc3C2=O)C(=O)N1 [Compound 10] | 27 | – | – | 38 | 1 | 35 | 1.9 | 2.1 | 48 | – | 52 | – | – | – | – | – | – |
| O=C1CCC[C@H](N2Cc3c(OCc4ccc(CN5CCOCC5)c(Cl)c4)cccc3C2=O)C(=O)N1 [Compound 3] | 72 | 79 | 1 | 29 | 0 | 20 | 2 | 0.7 | 91 | 93 | 91 | 93 | – | 77 | 94 | 93 | – |
| Cc1cnc(Nc2ccc(OCCCNC(=O)NCc3ccc(COc4cc(F)cc5c4CN([C@H]4CCC(=O)NC4=O)C5=O)cc3)cc2)nc1Nc1cccc(S(=O)(=O)NC(C)(C)C)c1 [Compound 18] | – | 49 | – | 99 | 99 | 99 | – | 3.2 | – | 83 | – | 80 | – | 45 | 89 | 83 | 3.3 |
| NCc1ccc2c(c1OCc1ccc(CN3CCOCC3)cc1)CN([C@H]1CCCC(=O)NC1=O)C2=O [Compound 22, ditrifluoroacetic acid] | 23 | 27 | 56 | – | 2 | 4 | 2 | 2.4 | 78 | 80 | 69 | 74 | 31 | – | – | – | – |
| O=C1CCC[C@H](N2Cc3c(OCc4ccc(CN5CCOCC5)cc4)cccc3C2=O)C(=O)N1 [Compound 1, (S)-3-(4-((4-(morpholinomethyl)benzyl)oxy)-1-oxoisoindolin-2-yl)azepane-2,7-dione] | 63 | 71 | 15 | 37 | 2 | 5 | 2.1 | 0.8 | 89 | 93 | 83 | 88 | 30 | – | – | – | – |
